Each structure is given as a SMILES string. “And” between values parts separate entries of the source, which are not always exact repeats. Identical values can stand only once.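 48-hour exposure; five concentrations; linearly interpolated endpoints. The concentration for 50% growth inhibition is given as GI50. TGI: total growth inhibition.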 Some results are limits rather than exact numbers.

Experimental findings from PubChem BioAssay (NCI) are described below.

Some test systems named below: MDA-N; LXFL 529 NSCLC; RXF-631 renal; XF 498 CNS; DMS 273 small cell lung; M19-MEL melanoma; DLD-1 colon; HOP-18 NSCLC; DMS 114 small cell lung.
Holding throughout (experiment): NCI-60 cell line screen, 48 h

On to `O=c1cccc2n1CC1CNC[C@H]2C1`, for which the TGI with MDA-N is above 100 µM.

On to `CC(C)=NNC(=S)NC12CC3CC(CC(C3)C1)C2`, for which the TGI with LXFL 529 NSCLC, with RXF-631 renal, in the experiment with XF 498 CNS, in the experiment on DMS 273 small cell lung and in the experiment with M19-MEL melanoma was above 100 µM each time.

Regarding `O=[N+]([O-])C=C1c2ccccc2-c2ccccc21`, the TGI with LXFL 529 NSCLC came out at 28.2 µM; in the experiment on DLD-1 colon, 7.71 µM.

On to `O=C1C(=O)N(c2ccc(Cl)cc2)C(=O)C(=Nc2cccc3c(=O)[nH][nH]c(=O)c23)C1c1nc2ccccc2o1` (stereo unspecified), for which the TGI in the experiment on LXFL 529 NSCLC, in the experiment on HOP-18 NSCLC, in the experiment with RXF-631 renal, in the experiment with DLD-1 colon, in the experiment with DMS 273 small cell lung and in the experiment with M19-MEL melanoma was above 100 µM in each case.

On to `Cc1ccc(C2=Nc3ccccc3S(=O)C(c3ccc4c(c3)OCO4)C2)cc1` (stereo unspecified), for which the TGI is above 10 µM with LXFL 529 NSCLC; above 100 µM in the experiment with HOP-18 NSCLC; 30.7 µM in the experiment on DLD-1 colon; 36.1 µM in the experiment with XF 498 CNS; above 100 µM in the experiment on DMS 273 small cell lung; above 100 µM in the experiment with M19-MEL melanoma.

With `O=C(O)c1c2c(cc3c(=O)cc(-c4ccccc4)oc13)CCCC2`, the TGI in the experiment with LXFL 529 NSCLC, in the experiment with RXF-631 renal, in the experiment with DLD-1 colon, in the experiment on XF 498 CNS and in the experiment on DMS 273 small cell lung was above 100 µM in each case.

With `COC(=O)C1[C@H](c2ccc3c(c2)OCO3)OC(=O)[C@]1(C(=O)OC)C(=O)c1ccc(OC)c(OC)c1` (stereo partly specified), the TGI in the experiment with LXFL 529 NSCLC was above 100 µM; in the experiment on HOP-18 NSCLC it was above 100 µM; with DLD-1 colon it was 40.1 µM; with XF 498 CNS it was above 100 µM; in the experiment on DMS 273 small cell lung, 71.6 µM; with M19-MEL melanoma, above 100 µM.

With `CN1CCN(CCCN2c3ccccc3Sc3ccc(Cl)cc32)CC1`, in the experiment on MDA-N, the GI50 is 42.1 µM and the TGI turned out to be 61.4 µM.

Turning to `c1ccc2c(CNCCCCCCCCNCc3cccc4ccccc34)cccc2c1`, the TGI with LXFL 529 NSCLC is 3.22 µM; in the experiment on HOP-18 NSCLC, 18.5 µM; with DLD-1 colon, 4.07 µM; with XF 498 CNS, 3.24 µM; in the experiment with DMS 114 small cell lung, 3.48 µM; in the experiment with DMS 273 small cell lung, 3.68 µM. Further, the TGI in the experiment with M19-MEL melanoma is 3.12 µM.

Regarding `Cc1ccc(C(=O)NCCN(C)C)c2nc3ccccc3cc12`, the TGI with LXFL 529 NSCLC is above 100 µM; with HOP-18 NSCLC it was 9.89 µM; with RXF-631 renal it was 12 µM; in the experiment with DLD-1 colon, above 100 µM; in the experiment with XF 498 CNS it was 3.95 µM; with DMS 114 small cell lung, above 100 µM. Moreover, the TGI is 2 µM in the experiment on DMS 273 small cell lung and above 100 µM with M19-MEL melanoma.

As for `CN(/N=C\c1ccnc2ccccc12)c1ccccc1`, the TGI with LXFL 529 NSCLC is 79.7 µM; in the experiment with HOP-18 NSCLC, above 100 µM; with DLD-1 colon, 64.6 µM; in the experiment on XF 498 CNS, 47.5 µM; in the experiment with DMS 114 small cell lung it was 48.7 µM; in the experiment with DMS 273 small cell lung it was 39.7 µM. Further, the TGI in the experiment with M19-MEL melanoma worked out at 54 µM.

Turning to `COC12OCCN(C)C1=CC(=O)C1(C)N=NCC12` (stereo unspecified), the TGI in the experiment on LXFL 529 NSCLC, in the experiment with HOP-18 NSCLC, with DLD-1 colon, in the experiment on DMS 114 small cell lung, in the experiment on DMS 273 small cell lung and in the experiment with M19-MEL melanoma was above 100 µM throughout.

For `Cc1ccc(S(=O)(=O)OCCOCCOCCOCCOCCOS(=O)(=O)c2ccc(C)cc2)cc1`, the TGI in the experiment on LXFL 529 NSCLC was above 100 µM; in the experiment on HOP-18 NSCLC, above 100 µM; in the experiment on RXF-631 renal, 82.2 µM; in the experiment with DLD-1 colon, above 100 µM; in the experiment with DMS 273 small cell lung, above 100 µM; with M19-MEL melanoma it was above 100 µM.

As to `COc1cc(O)c2c(c1)C(=O)C1=C(C2=O)C(O)C[C@@](C)(O)C1` (stereo partly specified), the TGI in the experiment with LXFL 529 NSCLC came out at 2.1 µM; with DLD-1 colon, 2.28 µM; in the experiment on XF 498 CNS it was 3.46 µM; in the experiment with DMS 114 small cell lung it was 3.26 µM; in the experiment with DMS 273 small cell lung, 5.04 µM; in the experiment on M19-MEL melanoma, 1.66 µM.

Consider `CCOC(=O)CN(c1ccccc1)c1nc(=[N+](C)C)ss1`, for which the TGI was above 100 µM in the experiment with HOP-18 NSCLC; above 100 µM in the experiment with DLD-1 colon; 27.7 µM in the experiment on DMS 114 small cell lung; 33.8 µM with DMS 273 small cell lung; 34 µM in the experiment with M19-MEL melanoma.

For `CCCCCCCCCCOC(=O)NCCC`, the TGI was above 100 µM in the experiment on LXFL 529 NSCLC; above 100 µM in the experiment on HOP-18 NSCLC; above 100 µM with RXF-631 renal; above 100 µM in the experiment with DLD-1 colon; 43.6 µM in the experiment with XF 498 CNS; 54.9 µM in the experiment with DMS 273 small cell lung. Moreover, in the experiment on M19-MEL melanoma, the TGI is above 100 µM.

For `O=C(O)CN(c1ccc(F)cc1)S(=O)(=O)c1ccccc1`, the TGI in the experiment with LXFL 529 NSCLC, in the experiment with HOP-18 NSCLC, in the experiment on RXF-631 renal, with DLD-1 colon, in the experiment with XF 498 CNS and with DMS 273 small cell lung was above 100 µM each time. Also, the TGI with M19-MEL melanoma is above 100 µM.

Regarding `O=C1CC(CC(OCc2ccccc2)C(OCc2ccccc2)C(COCc2ccccc2)OCc2ccccc2)CC(=O)N1` (stereo unspecified), in the experiment on MDA-N, the GI50 is > 100 µM and 12.5 µM; the TGI was > 100 µM and 27.7 µM.

Consider `CC(=O)OCC1OC(n2ncc(=O)[nH]c2=O)C(OC(C)=O)C1OC(C)=O` (stereo unspecified), for which, in the experiment with MDA-N, the TGI was above 100 µM.

`CN1C(=O)C2(c3ccccc31)C1CC3C(CO1)C1C2C3(CO)CN1C#N` (stereo unspecified) gave a TGI in the experiment with MDA-N above 100 µM.

Regarding `[Cu+2].[NH-]C(CC(=O)O)C(=O)O.[NH-]C(CC(=O)O)C(=O)O` (stereo unspecified), in the experiment on MDA-N, the GI50 was above 100 µM and the TGI was above 100 µM.

In the experiment with MDA-N, `O=[N+]([O-])c1oc2ccc3ccccc3c2c1CCO` yielded a TGI of 4.07 µM.

With `C=C1C(=O)C2=CC1CCC(=O)C1(C)CCC(OC(C)=O)C(C)(C)C1CC2O` (stereo unspecified), the TGI in the experiment with MDA-N came out at 4.41 µM.

As for `O=C(O)Cc1ccc(N=Nc2c(O)c(C(=O)O)cc3ccccc23)cc1`, in the experiment on MDA-N, the TGI was above 100 µM.

`CC1(C)CCC(C)(C)c2cc(NC(=O)c3ccc(C(=O)O)cc3)ccc21` gave a TGI with MDA-N above 100 µM.

As to `CN(C)c1ccccc1[CH2][Ga]([Cl])[CH2]c1ccccc1N(C)C`, in the experiment on MDA-N, the GI50 was 1.66 µM and the TGI was 3.08 µM.

`CC[PH+](CC)CC.CC[PH+](CC)CC.[Au]`: the GI50 in the experiment with LXFL 529 NSCLC is 2.31 µM; in the experiment on HOP-18 NSCLC it was 8 µM; in the experiment with DLD-1 colon, 5.52 µM; in the experiment on XF 498 CNS, 11 µM; in the experiment on DMS 273 small cell lung it was 17 µM; in the experiment on M19-MEL melanoma, 4.06 µM. Also, the TGI in the experiment with LXFL 529 NSCLC came out at 6.33 µM; with HOP-18 NSCLC it was 22.1 µM; in the experiment on DLD-1 colon, 18.9 µM; in the experiment with XF 498 CNS, 26.4 µM; with DMS 273 small cell lung, 38.3 µM; in the experiment with M19-MEL melanoma it was 31.9 µM.
